The target in the test is bNOS (UniProt P29475). The test can be described thus: bNOS inhibition (method of Bredt and Snyder). The class given is biochemical. The text has this:
The NOS-inhibitory action of the compounds of Formula (I) and their physiologically compatible salts can be determined according to the methods by Bredt and Snyder in Proc. Natl. Acad. Sci. USA (1989) 86, 9030-9033.

One may read the IC50 as the concentration at which inhibition is half-maximal.

On to `COC(=O)CCc1ccc2c(c1)N=C(N)C1CCCC21` (centres unmarked) [Example 22, 4-Amino-7-(methoxycarbonylethyl)-2,3,3a,9b-tetrahydro-1H-cyclopenta[c]quinoline], for which inhibition was half-maximal at 1100 nM (IC50).
Next, `NC1=Nc2cc(N3CCOCC3)ccc2C2CCCC12` (centres unmarked) [Example 21, 4-Amino-7-(4-morpholinyl)-2,3,3a,9b-tetrahydro-1H-cyclopenta[c]quinoline]: 1400 nM.

For the origin of these results see US6391887B1, “3,4-Dihydroquinoline derivatives as nitrogen monoxide synthase (NOS) inhibitors” (Schering Aktiengesellschaft, priority 1998, dated 2002).
